{"source": "ChEMBL document CHEMBL1201862", "about": "“PubChem BioAssay data set” (2004)", "key": {"[1]": {"experiment": "HIV-1 Vif–A3G interaction blockers – biochemical, TR-FRET, GST-Vif 1-94, biotin-A3G peptide, dose response retest, primary screen (AID 1117319);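 note: TR-FRET signal of purified GST-Vif binding a biotinylated A3G peptide; inhibitors lower the FRET signal by blocking Vif and A3G binding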", "assay_type": "functional"}, "Protein Tat": {"molecular_target": "T1, Protein Tat (Human immunodeficiency virus type 1 group M subtype B (isolate HXB2)(HIV-1), UniProt P04608)", "T1 sequence (P04608 whole entry)": "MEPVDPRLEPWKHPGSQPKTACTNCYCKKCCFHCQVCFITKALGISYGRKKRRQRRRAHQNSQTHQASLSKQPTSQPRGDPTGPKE", "assay_type": "functional"}, "Vero [2]": {"tested_on": "Vero", "experiment": "cells", "assay_type": "functional", "conditions": "Chlorocebus sabaeus"}, "Vero [3]": {"tested_on": "Vero", "experiment": "mammalian cell viability reduction – secondary assay, cytotoxicity control for West Nile virus antiviral project, dose response (AID 1650)", "assay_type": "functional", "conditions": "Chlorocebus sabaeus"}, "[4]": {"experiment": "HPDE-C7 pancreatic duct cell viability loss – fluorescence, HTS (AID 430)", "assay_type": "functional, cell-based", "conditions": "Homo sapiens"}, "[5]": {"experiment": "viability loss of HPDE-C7K cells – cell-based, fluorescence, HTS, primary screen (AID 431)", "assay_type": "functional", "conditions": "Homo sapiens"}, "Estrogen receptor beta": {"molecular_target": "Estrogen receptor beta (Homo sapiens, UniProt Q92731)", "sequence (Q92731 whole entry)": "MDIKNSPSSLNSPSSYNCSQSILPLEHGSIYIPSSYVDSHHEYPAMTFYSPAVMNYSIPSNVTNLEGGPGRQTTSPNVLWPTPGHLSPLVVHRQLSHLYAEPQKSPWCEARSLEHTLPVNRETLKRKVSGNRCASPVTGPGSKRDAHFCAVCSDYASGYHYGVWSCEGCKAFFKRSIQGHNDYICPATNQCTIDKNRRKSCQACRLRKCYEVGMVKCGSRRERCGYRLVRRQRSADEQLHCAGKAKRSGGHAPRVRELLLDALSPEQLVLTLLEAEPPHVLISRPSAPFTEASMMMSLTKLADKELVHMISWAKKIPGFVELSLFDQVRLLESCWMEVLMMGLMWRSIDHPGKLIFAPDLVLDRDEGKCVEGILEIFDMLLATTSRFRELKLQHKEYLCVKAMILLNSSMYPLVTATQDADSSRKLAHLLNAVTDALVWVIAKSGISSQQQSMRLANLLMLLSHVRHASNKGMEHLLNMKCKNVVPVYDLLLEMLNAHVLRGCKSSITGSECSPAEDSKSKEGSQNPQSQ", "experiment": "blockers of SRC-3 recruitment to ERβ – biochemical, ELISA, streptavidin-HRP readout, orthogonal assay, confirmation (AID 1060)"}, "[6]": {"molecular_target": "Heat shock protein HSP 90-alpha (Homo sapiens, UniProt P07900)", "experiment": "Luminescence-based dose response biochemical high throughput screening assay for inhibitors of the Heat Shock Protein 90 (HSP90). [Related pubchem assays: 1831 (Summary AID.), 1846 (Confirmation screen.), 1789 (Primary screen.)]"}, "[7]": {"experiment": "Luminescence Cell-Based Dose Response to Identify Activators of Luciferase Translation or Activity in H4-C Neuroglioblastoma Cells. [Related pubchem assays: 1829 (Project Summary), 1814 (Primary HTS)]", "assay_type": "functional"}, "[8]": {"experiment": "Luminescence Cell-Based Dose Response HTS to Identify Activators of Luciferase Translation or Activity in H4 […] Cells. [Related pubchem assays: 1829 (Project Summary), 1814 (Primary HTS)]", "assay_type": "functional"}, "[9]": {"experiment": "Luminescence Cell-Based Dose Response to Identify Activators of 5'UTR Stem-Loop Driven Prion Protein mRNA Translation in H4-C Neuroglioblastoma Cells. [Related pubchem assays: 1829 (Project Summary), 1814 (Primary HTS)]", "assay_type": "functional"}, "H4": {"tested_on": "H4", "experiment": "Luminescence Cell-Based Dose Response HTS to Identify Activators of 5'UTR Stem-Loop Driven Prion Protein mRNA Translation in H4 Neuroglioblastoma Cells. [Related pubchem assays: 1829 (Project Summary), 1814 (Primary HTS)]", "assay_type": "functional", "conditions": "Homo sapiens"}, "[10]": {"experiment": "Luminescence Cell-Based Dose Confirmation to Identify Activators of 5'UTR Stem-Loop Driven Alpha-Synuclein mRNA Translation in H4 Neuroglioblastoma Cells. [Related pubchem assays: 1829 (Project Summary), 1814 (Primary HTS)]", "assay_type": "functional"}, "[11]": {"experiment": "Luminescence Cell-Based Dose Confirmation HTS to Identify Activators of 5'UTR Stem-Loop Driven Alpha-Synuclein mRNA Translation in H4 Neuroglioblastoma Cells. [Related pubchem assays: 1829 (Project Summary), 1814 (Primary HTS)]", "assay_type": "functional"}, "[12]": {"molecular_target": "T2, Ubiquitin-conjugating enzyme E2 N (Homo sapiens, UniProt P61088)", "T2 sequence (P61088 whole entry)": "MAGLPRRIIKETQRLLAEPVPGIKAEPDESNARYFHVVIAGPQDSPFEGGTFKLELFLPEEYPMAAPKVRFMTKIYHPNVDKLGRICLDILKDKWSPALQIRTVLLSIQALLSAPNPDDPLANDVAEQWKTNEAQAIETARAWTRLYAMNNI", "assay_type": "functional"}}, "note": "Calls of active or inactive are those of the source.", "data": [{"smiles": "O=C(CSc1nnc(C2CCCCC2)n1Cc1ccccc1)NCc1ccco1", "values": [{"measurement": "IC50", "setting": "[1]", "value": "> 100 µM (active)"}, {"measurement": "IC50", "setting": "Protein Tat", "value": "> 100 µM (active)"}]}, {"smiles": "CC(=O)OC1CC[C@]2(C#N)[C@H]3CC[C@]4(C)[C@H](C5C=CC(=O)O5)CCC4(O)C3CCC2(O)C1", "note": "(stereo partly specified)", "values": [{"measurement": "CC50", "setting": "Vero [2]", "value": "18.5 µM (active)"}, {"measurement": "CC50", "setting": "Vero [3]", "value": "13.5 µM (active)"}]}, {"smiles": "CN1C(=O)C2(OCC(COc3ccc(Cl)cc3)O2)c2ccccc21", "note": "(stereo unspecified)", "values": [{"measurement": "EC50", "setting": "[4]", "value": "> 20 µM (not active)"}, {"measurement": "EC50", "setting": "[5]", "value": "> 20 µM (not active)"}]}, {"smiles": "CN(C)c1ccc(NC(=O)N2CCOCC2)cc1", "values": [{"measurement": "IC50", "setting": "Estrogen receptor beta", "value": "63.3 nM (not active)"}]}, {"smiles": "COc1ccccc1Nc1nn2c(=O)c3ccc(C(=O)NCc4cccnc4)cc3nc2s1", "values": [{"measurement": "IC50", "setting": "[6]", "value": "4.9 µM (active)"}]}, {"smiles": "Fc1ccccc1NC(=S)N/N=C/c1ccccc1Br", "values": [{"measurement": "EC50", "setting": "[7]", "value": "376 nM (active)"}, {"measurement": "EC50", "setting": "[8]", "value": "< 100 nM (active)"}, {"measurement": "EC50", "setting": "[9]", "value": "578 nM (active)"}, {"measurement": "EC50", "setting": "H4", "value": "> 120 µM (not active)"}, {"measurement": "EC50", "setting": "[10]", "value": "5.76 µM (active)"}, {"measurement": "EC50", "setting": "[11]", "value": "219 nM (active)"}]}, {"smiles": "Cc1ccc(Nc2nc(NCCO)c3ccccc3n2)cc1C", "values": [{"measurement": "IC50", "setting": "[12]", "value": "> 20 µM (inactive)"}, {"measurement": "CC50", "setting": "Vero [3]", "value": "13.4 µM (active)"}]}]}
